Here are results for ten compounds from patent US20240270762A1, “PENICILLIN-BINDING PROTEIN INHIBITORS” (priority 2021, published 2024).

Assay [1] relates to B. thailandensis ATCC 700388. Briefly: microbe, parasite or virus in culture. Format: cell-based. The settings on record: Burkholderia thailandensis, ATCC700388, read-out: Minimum inhibitory concentration (MIC), B. thailandensis ATCC 700388.
Assay [2] addresses T1, PBP3 from Pseudomonas aeruginosa (PAO1) (Pseudomonas aeruginosa, UniProt G3XD46).
T1 construct: made in house
Briefly: Bocillin-FL fluorescence polarization competition binding, P. aeruginosa PBP3. To be noted: Binding affinity to P. aeruginosa PBP3; fluorescence polarization competition binding assay using Bocillin-FL; read-out: P. aeruginosa PBP3 Potency. In outline:
(§1)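 Purified PBP was preincubated with inhibitor (E. coli PBP3 1.5 μM, 30 min; P. aeruginosa PBP3 0.75 μM, A. baumannii PBP3 0.2 μM and PBP1a 1 μM, 15 min), then Bocillin-FL (0.1 μM; 0.05 μM for PBP1a) added and FP read up to 60 min. EC50 = 50% loss of bound probe.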
On the technique in general: In fluorescence polarisation assays a small probe gives low polarisation when free and higher when bound to something large.

Assay [3] concerns the target T2, PBP3 from Escherichia coli (K-12) (Escherichia coli, UniProt P0AD68).
T2 construct: made in house
The experiment in a line: Bocillin-FL fluorescence polarization competition binding, E. coli PBP3. In outline: as §1

A further assay deals with P. aeruginosa CDC-0095. The experiment in a line: microbe, parasite or virus in culture. Format: cell-based. The settings on record: Pseudomonas aeruginosa, CDC0095, read-out: Minimum inhibitory concentration, P. aeruginosa CDC-0095.
Another assay deals with P. aeruginosa CDC-0090. The experiment in a line: microbe, parasite or virus in culture. The settings on record: Pseudomonas aeruginosa, CDC0090, read-out: Minimum inhibitory concentration, P. aeruginosa CDC-0090. Format: cell-based.
Assay [4] deals with T3, PBP3 from Acinetobacter baumannii (ATCC 19606) (Acinetobacter baumannii, UniProt A0ABX6CK25).
T3 sequence (A0ABX6CK25 64-610): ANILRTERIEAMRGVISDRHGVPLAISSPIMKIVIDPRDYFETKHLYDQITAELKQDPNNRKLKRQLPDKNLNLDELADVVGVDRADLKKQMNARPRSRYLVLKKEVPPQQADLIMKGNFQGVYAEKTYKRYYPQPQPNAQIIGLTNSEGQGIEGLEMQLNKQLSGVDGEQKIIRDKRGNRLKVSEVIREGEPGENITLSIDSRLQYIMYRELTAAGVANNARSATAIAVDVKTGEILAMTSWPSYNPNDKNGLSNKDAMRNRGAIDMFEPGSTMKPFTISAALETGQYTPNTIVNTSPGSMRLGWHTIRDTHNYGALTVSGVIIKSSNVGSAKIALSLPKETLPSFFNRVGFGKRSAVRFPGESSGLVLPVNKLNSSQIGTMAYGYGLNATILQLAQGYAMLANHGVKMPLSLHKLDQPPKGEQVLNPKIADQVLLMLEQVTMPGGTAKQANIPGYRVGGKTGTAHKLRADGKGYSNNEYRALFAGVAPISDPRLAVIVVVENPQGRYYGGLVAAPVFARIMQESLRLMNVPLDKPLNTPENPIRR
The experiment in a line: Bocillin-FL fluorescence polarization competition binding, A. baumannii PBP3. The settings on record: fluorescence polarization competition binding assay using Bocillin-FL; read-out: A. baumannii PBP3 Potency. In a few lines: as §1

The next assay deals with P. aeruginosa ATCC 35151. Briefly: microbe, parasite or virus in culture. Format: cell-based. The settings on record: Pseudomonas aeruginosa, ATCC35151, read-out: Minimum inhibitory concentration, P. aeruginosa ATCC 35151.
The next assay has as its system A. baumannii CDC-0033. Briefly: microbe, parasite or virus in culture. It counts as cell-based. To be noted: Acinetobacter baumannii, CDC0033, read-out: MIC, A. baumannii CDC-0033.

Structures are written as SMILES. Converted amounts (≈) assume the structure as drawn. Bounds are passed on as bounds.

T2 sequence (P0AD68 1-577): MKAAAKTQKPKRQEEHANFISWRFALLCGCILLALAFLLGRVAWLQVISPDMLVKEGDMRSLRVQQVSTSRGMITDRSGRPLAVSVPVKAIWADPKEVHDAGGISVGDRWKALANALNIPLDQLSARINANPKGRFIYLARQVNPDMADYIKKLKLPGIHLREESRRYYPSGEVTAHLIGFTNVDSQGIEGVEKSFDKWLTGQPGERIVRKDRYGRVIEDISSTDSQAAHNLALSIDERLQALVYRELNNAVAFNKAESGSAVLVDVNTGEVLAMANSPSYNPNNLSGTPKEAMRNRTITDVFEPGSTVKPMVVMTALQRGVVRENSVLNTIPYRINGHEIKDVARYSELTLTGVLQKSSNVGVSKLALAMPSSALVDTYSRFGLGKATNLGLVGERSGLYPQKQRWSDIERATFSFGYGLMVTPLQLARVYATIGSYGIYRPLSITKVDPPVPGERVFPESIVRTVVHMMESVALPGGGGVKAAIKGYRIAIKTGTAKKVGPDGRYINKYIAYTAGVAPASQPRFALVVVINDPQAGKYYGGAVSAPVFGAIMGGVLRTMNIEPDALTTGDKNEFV
T1 sequence (G3XD46 whole entry): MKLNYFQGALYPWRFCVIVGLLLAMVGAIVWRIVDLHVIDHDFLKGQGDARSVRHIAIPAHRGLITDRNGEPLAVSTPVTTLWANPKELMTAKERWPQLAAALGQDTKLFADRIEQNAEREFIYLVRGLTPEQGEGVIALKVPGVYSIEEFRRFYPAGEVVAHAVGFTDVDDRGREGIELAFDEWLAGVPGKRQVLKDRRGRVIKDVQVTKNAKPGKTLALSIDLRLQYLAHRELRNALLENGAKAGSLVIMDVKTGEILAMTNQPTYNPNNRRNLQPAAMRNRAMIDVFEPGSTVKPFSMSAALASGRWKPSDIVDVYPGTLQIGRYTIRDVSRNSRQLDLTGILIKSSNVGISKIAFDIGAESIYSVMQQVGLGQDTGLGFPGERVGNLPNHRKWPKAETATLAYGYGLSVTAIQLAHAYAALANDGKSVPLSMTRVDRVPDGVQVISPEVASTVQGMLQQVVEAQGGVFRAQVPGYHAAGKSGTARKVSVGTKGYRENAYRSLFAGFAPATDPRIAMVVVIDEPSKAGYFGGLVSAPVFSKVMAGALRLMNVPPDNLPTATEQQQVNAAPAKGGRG

For orientation: EC50 means the concentration that produces a half-maximal response. As for `O=C(NCCCN1CCN(C(=O)NC(C(=O)N[C@H]2Cc3ccc(F)c(C(=O)O)c3OB2O)c2cc(F)c(O)c(O)c2Cl)C(=O)C1=O)c1ccc(O)c(Cl)c1F` (stereo partly drawn) [Example 419, (3R)-3-(2-(4-(3-(3-chloro-2-fluoro-4-hydroxybenzamido)propyl)-2,3-dioxopiperazine-1-carboxamido)-2-(2-chloro-5-fluoro-3,4-dihydroxyphenyl)acetamido)-7-fluoro-2-hydroxy-3,4-dihydro-2H-benzo[e][1,2]oxaborinine-8-carboxylic acid], the MIC is 2 to 4 mg/L (≈ 2.46 to 4.92 µM) in assay [1]; 2 to 4 mg/L (≈ 2.46 to 4.92 µM) with P. aeruginosa CDC-0095; 2 to 4 mg/L (≈ 2.46 to 4.92 µM) with P. aeruginosa CDC-0090; below 1 mg/L in the assay on P. aeruginosa ATCC 35151; 8 to 16 mg/L (≈ 9.85 to 19.7 µM) in the assay with A. baumannii CDC-0033. The IC50 in assay [2] and in assay [4] was below 10 µM each time. This compound also came in with an EC50 in assay [3] below 10 µM.
As for `O=C(NCCCN1CCN(C(=O)NC(C(=O)N[C@H]2Cc3ccc(F)c(C(=O)O)c3OB2O)c2cc(F)c(O)c(O)c2Cl)C(=O)C1=O)c1cc(O)ccc1F` (stereo partly drawn) [Example 407, (3R)-3-(2-(2-chloro-5-fluoro-3,4-dihydroxyphenyl)-2-(4-(3-(2-fluoro-5-hydroxybenzamido)propyl)-2,3-dioxopiperazine-1-carboxamido)acetamido)-7-fluoro-2-hydroxy-3,4-dihydro-2H-benzo[e][1,2]oxaborinine-8-carboxylic acid], the MIC in assay [1] is 2 to 4 mg/L (≈ 2.57 to 5.14 µM); with P. aeruginosa CDC-0095, 2 to 4 mg/L (≈ 2.57 to 5.14 µM); in the assay with P. aeruginosa CDC-0090, below 1 mg/L; in the assay with P. aeruginosa ATCC 35151, below 1 mg/L; in the assay with A. baumannii CDC-0033, 2 to 4 mg/L (≈ 2.57 to 5.14 µM). The IC50 in assay [2] and in assay [4] was below 10 µM throughout. The same compound returned a half-maximal effective concentration (EC50) in assay [3] below 10 µM.
Consider `CN(CCCN1CCN(C(=O)NC(C(=O)N[C@H]2Cc3ccc(F)c(C(=O)O)c3OB2O)c2cc(F)c(O)c(O)c2Cl)C(=O)C1=O)C(=O)c1cccc(O)c1` (stereo partly drawn) [Example 310, (3R)-3-(2-(2-chloro-5-fluoro-3,4-dihydroxyphenyl)-2-(4-(3-(3-hydroxy-N-methylbenzamido)propyl)-2,3-dioxopiperazine-1-carboxamido)acetamido)-7-fluoro-2-hydroxy-3,4-dihydro-2H-benzo[e][1,2]oxaborinine-8-carboxylic acid], for which the MIC in assay [1] is 2 to 4 mg/L (≈ 2.58 to 5.17 µM); with P. aeruginosa CDC-0095, 2 to 4 mg/L (≈ 2.58 to 5.17 µM); with P. aeruginosa CDC-0090 it was 2 to 4 mg/L (≈ 2.58 to 5.17 µM); with P. aeruginosa ATCC 35151 it was below 1 mg/L; in the assay on A. baumannii CDC-0033 it was 2 to 4 mg/L (≈ 2.58 to 5.17 µM). Also, the IC50 in assay [2] and in assay [4] was below 10 µM throughout. This compound had a 50% effective concentration (EC50) in assay [3] below 10 µM.
`O=C(NCCCN1CCN(C(=O)NC(C(=O)N[C@H]2Cc3ccc(F)c(C(=O)O)c3OB2O)c2cc(F)c(O)c(O)c2Cl)C(=O)C1=O)c1c(F)cc(O)cc1Cl` (stereo partly drawn) [Example 421, (3R)-3-(2-(2-chloro-5-fluoro-3,4-dihydroxyphenyl)-2-(4-(3-(2-chloro-6-fluoro-4-hydroxybenzamido)propyl)-2,3-dioxopiperazine-1-carboxamido)acetamido)-7-fluoro-2-hydroxy-3,4-dihydro-2H-benzo[e][1,2]oxaborinine-8-carboxylic acid]: the MIC in assay [1] is 2 to 4 mg/L (≈ 2.46 to 4.92 µM); in the assay on P. aeruginosa CDC-0095, 2 to 4 mg/L (≈ 2.46 to 4.92 µM); in the assay with P. aeruginosa CDC-0090, below 1 mg/L; in the assay with P. aeruginosa ATCC 35151, below 1 mg/L; with A. baumannii CDC-0033 it was 2 to 4 mg/L (≈ 2.46 to 4.92 µM). In addition, the IC50 in assay [2] and in assay [4] was below 10 µM each time. Besides, the EC50 in assay [3] is below 10 µM.
As for `O=C(NCCCN1CCN(C(=O)NC(C(=O)N[C@H]2Cc3ccc(F)c(C(=O)O)c3OB2O)c2cc(F)c(O)c(O)c2Cl)C(=O)C1=O)c1cc(O)c(F)c(O)c1` (stereo partly drawn) [Example 416, (3R)-3-(2-(2-chloro-5-fluoro-3,4-dihydroxyphenyl)-2-(4-(3-(4-fluoro-3,5-dihydroxybenzamido)propyl)-2,3-dioxopiperazine-1-carboxamido)acetamido)-7-fluoro-2-hydroxy-3,4-dihydro-2H-benzo[e][1,2]oxaborinine-8-carboxylic acid], the MIC in assay [1] is below 1 mg/L; in the assay with P. aeruginosa CDC-0095 it was below 1 mg/L; in the assay with P. aeruginosa CDC-0090 it was below 1 mg/L; in the assay on P. aeruginosa ATCC 35151 it was below 1 mg/L; in the assay with A. baumannii CDC-0033, 2 to 4 mg/L (≈ 2.52 to 5.04 µM). Moreover, the IC50 in assay [2] and in assay [4] was below 10 µM throughout. In assay [3], this compound returned an EC50 below 10 µM.
In the case of `O=C(NCCCN1CCN(C(=O)N[C@@H](C(=O)N[C@H]2Cc3ccc(F)c(C(=O)O)c3OB2O)c2cc(F)c(O)c(O)c2Cl)C(=O)C1=O)c1cc(F)c(O)c(F)c1` [Example 422, (R)-3-((R)-2-(2-chloro-5-fluoro-3,4-dihydroxyphenyl)-2-(4-(3-(3,5-difluoro-4-hydroxybenzamido)propyl)-2,3-dioxopiperazine-1-carboxamido)acetamido)-7-fluoro-2-hydroxy-3,4-dihydro-2H-benzo[e][1,2]oxaborinine-8-carboxylic acid], the MIC in assay [1] is below 1 mg/L; in the assay on P. aeruginosa CDC-0095, below 1 mg/L; in the assay with P. aeruginosa CDC-0090, 2 to 4 mg/L (≈ 2.51 to 5.03 µM); in the assay on P. aeruginosa ATCC 35151 it was below 1 mg/L; in the assay on A. baumannii CDC-0033 it was 2 to 4 mg/L (≈ 2.51 to 5.03 µM). Also, the IC50 in assay [2] and in assay [4] was below 10 µM throughout. The same compound gave an EC50 in assay [3] below 10 µM.
For the compound `O=C(O)c1c(F)ccc2c1OB(O)[C@@H](NC(=O)C(NC(=O)N1CCN(C3CCN(C(=O)c4ccc(O)cc4)CC3)C(=O)C1=O)c1cc(F)c(O)c(O)c1Cl)C2` (stereo partly drawn) [Example 427, (3R)-3-(2-(2-chloro-5-fluoro-3,4-dihydroxyphenyl)-2-(4-(1-(4-hydroxybenzoyl)piperidin-4-yl)-2,3-dioxopiperazine-1-carboxamido)acetamido)-7-fluoro-2-hydroxy-3,4-dihydro-2H-benzo[e][1,2]oxaborinine-8-carboxylic acid], the MIC was below 1 mg/L in assay [1]; 2 to 4 mg/L (≈ 2.54 to 5.09 µM) in the assay with P. aeruginosa CDC-0095; 2 to 4 mg/L (≈ 2.54 to 5.09 µM) with P. aeruginosa CDC-0090; below 1 mg/L in the assay on P. aeruginosa ATCC 35151; 2 to 4 mg/L (≈ 2.54 to 5.09 µM) in the assay on A. baumannii CDC-0033. The IC50 in assay [2] and in assay [4] was below 10 µM in each case. In assay [3], this compound gave an EC50 below 10 µM.
In the case of `O=C(O)c1c(F)ccc2c1OB(O)[C@@H](NC(=O)C(NC(=O)N1CCN(C3CCN(C(=O)c4c(F)ccc(O)c4F)CC3)C(=O)C1=O)c1cc(F)c(O)c(O)c1Cl)C2` (stereo partly drawn) [Example 308, (3R)-3-(2-(2-chloro-5-fluoro-3,4-dihydroxyphenyl)-2-(4-(1-(2,6-difluoro-3-hydroxybenzoyl)piperidin-4-yl)-2,3-dioxopiperazine-1-carboxamido)acetamido)-7-fluoro-2-hydroxy-3,4-dihydro-2H-benzo[e][1,2]oxaborinine-8-carboxylic acid], the MIC in assay [1] is 2 to 4 mg/L (≈ 2.43 to 4.87 µM); in the assay on P. aeruginosa CDC-0095 it was 2 to 4 mg/L (≈ 2.43 to 4.87 µM); with P. aeruginosa CDC-0090, 2 to 4 mg/L (≈ 2.43 to 4.87 µM); with P. aeruginosa ATCC 35151, below 1 mg/L; in the assay with A. baumannii CDC-0033, 2 to 4 mg/L (≈ 2.43 to 4.87 µM). For the same compound, the IC50 in assay [2] and in assay [4] was below 10 µM throughout. In addition, the concentration for a half-maximal effect (EC50) in assay [3] was below 10 µM.
In the case of `O=C(NCCCN1CCN(C(=O)NC(C(=O)N[C@H]2Cc3ccc(F)c(C(=O)O)c3OB2O)c2cc(F)c(O)c(O)c2Cl)C(=O)C1=O)c1ccc(F)c(O)c1Cl` (stereo partly drawn) [Example 412, (3R)-3-(2-(4-(3-(2-chloro-4-fluoro-3-hydroxybenzamido)propyl)-2,3-dioxopiperazine-1-carboxamido)-2-(2-chloro-5-fluoro-3,4-dihydroxyphenyl)acetamido)-7-fluoro-2-hydroxy-3,4-dihydro-2H-benzo[e][1,2]oxaborinine-8-carboxylic acid], the MIC in assay [1] is 2 to 4 mg/L (≈ 2.46 to 4.92 µM); with P. aeruginosa CDC-0095, 2 to 4 mg/L (≈ 2.46 to 4.92 µM); in the assay on P. aeruginosa CDC-0090 it was 2 to 4 mg/L (≈ 2.46 to 4.92 µM); in the assay on P. aeruginosa ATCC 35151, below 1 mg/L; in the assay on A. baumannii CDC-0033 it was 8 to 16 mg/L (≈ 9.85 to 19.7 µM). The IC50 in assay [2] and in assay [4] was below 10 µM throughout. In assay [3], this compound returned an EC50 below 10 µM.
For `O=C(NCCCN1CCN(C(=O)N[C@@H](C(=O)N[C@H]2Cc3ccc(F)c(C(=O)O)c3OB2O)c2cc(F)c(O)c(O)c2Cl)C(=O)C1=O)c1cc(F)nc(F)c1` (racemic) [Example 401], the MIC in assay [1] was above 128 mg/L; in the assay with P. aeruginosa CDC-0095, below 1 mg/L; in the assay with P. aeruginosa CDC-0090, below 1 mg/L; in the assay on P. aeruginosa ATCC 35151, below 1 mg/L; in the assay on A. baumannii CDC-0033 it was 2 to 4 mg/L (≈ 2.56 to 5.12 µM). Besides, the IC50 in assay [2] and in assay [4] was below 10 µM throughout. The EC50 in assay [3] was below 10 µM.
